target: human DGAT2 (Homo sapiens (Human), UniProt Q96PD7); assay: DGAT2 Enzymatic Activity Assay; conditions: Human DGAT2 IC50, hDGAT2 membrane prep from Sf-9 cells; 13C18-triolein product by LC/MS/MS
Sequence (Q96PD7 whole entry): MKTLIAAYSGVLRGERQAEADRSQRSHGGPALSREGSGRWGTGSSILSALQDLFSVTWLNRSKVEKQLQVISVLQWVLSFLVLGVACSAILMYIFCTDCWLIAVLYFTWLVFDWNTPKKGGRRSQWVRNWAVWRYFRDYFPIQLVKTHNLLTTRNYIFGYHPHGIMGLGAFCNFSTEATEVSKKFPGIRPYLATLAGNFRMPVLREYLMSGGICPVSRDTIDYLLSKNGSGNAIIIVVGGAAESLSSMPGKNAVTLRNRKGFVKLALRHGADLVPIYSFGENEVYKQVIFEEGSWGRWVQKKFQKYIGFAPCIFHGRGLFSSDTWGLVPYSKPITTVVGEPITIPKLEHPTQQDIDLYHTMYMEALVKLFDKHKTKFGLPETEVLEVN
Procedure: Sf-9 insect cells were maintained in Grace's insect cell culture medium with 10% heated-inactivated fetal bovine serum, 1% Pluronic F-68 and 0.14 μg/ml Kanamycine sulfate at 27° C. in a shaker incubator. After infection with untagged baculovirus expressing human DGAT2 (hDGAT2) at multiplicity of infection (MOI) 3 for 48 hours, cells were harvested. Cell pellets were suspended in buffer containing 10 mM Tris-HCl pH 7.5, 1 mM EDTA, 250 mM sucrose and Complete Protease Inhibitor Cocktail (Sigma Aldrich), and sonicated on ice. Cell debris were removed by centrifugation at 2000×g for 15 minutes. Membrane fractions were isolated by ultracentrifugation (100,000×g), resuspended in the same buffer, and frozen (−80° C.) for later use. The protein concentration was determined with the Pierce™ BCA Protein Assay Kit (Thermo Fisher Scientific).
LC/MS/MS analyses were performed using Thermal Fisher's LX4-TSQ Vantage system. This system consists of an Agilent binary high-performance liquid chromatography (HPLC) pump and a TSQ Vantage triple quadrupole MS/MS instrument. For each sample, 2 μL samples from the top organic layer of in-plate liquid-liquid extraction were injected onto a Thermo Betabasic C4 column (2.1 mm×20 mm, 5 μm particle size). The samples were then eluted using the following conditions; mobile phase: Isopropanol: acetonitrile/10 mM ammonium formate=50/35/15 (v/v/v), flow rate: 0.8 mL/min, temperature: 25° C. Data was acquired in positive mode using a heated electrospray ionization (HESI) interface. […] The peak area was integrated by Xcalibur Quan software. The ratio between the ^13C18 triolein generated in the reaction and spiked in internal standard ^13C21-triolein was used to generate percentage inhibition and IC50 values. […] DGAT2 activity was determined by measuring the amount of enzymatic product ^13C18-triolein (^13C-1,2,3-Tri(cis-9-octadecenoyl)glycerol) using the membrane prep mentioned above. The assay was carried out in ABgene 384-well assay plates in a final volume of 25 μL at rt.

SMILES	IC50 [nM]
Cn1c(C(=O)NC2(C)CCS(=O)(=O)CC2)nc2c(F)c(Oc3ncc(Cl)cc3OCC(F)(F)F)ccc21 [Example 22, 5-((5-chloro-3-(2,2,2-trifluoroethoxy)pyridin-2-yl)oxy)-4-fluoro-1-methyl-N-(4-methyl-1,1-dioxidotetrahydro-2H-thiopyran-4-yl)-1H-benzo[d]imidazole-2-carboxamide]	604
Cn1c(C(=O)NC2(C)CCS(=O)(=O)CC2)nc2cc(Oc3ncccc3OCC(F)(F)F)ccc21 [Example 12, 1-Methyl-N-(4-methyl-1,1-dioxidotetrahydro-2H-thiopyran-4-yl)-5-((3-(2,2,2-trifluoroethoxy)pyridin-2-yl)oxy)-1H-benzo[d]imidazole-2-carboxamide]	694
Cn1c(C(=O)NC2(C)CCS(=O)(=O)CC2)nc2ccc(Oc3ncccc3OCC(F)(F)F)cc21 [Example 11, 1-Methyl-N-(4-methyl-1,1-dioxidotetrahydro-2H-thiopyran-4-yl)-6-((3-(2,2,2-trifluoroethoxy)pyridin-2-yl)oxy)-1H-benzo[d]imidazole-2-carboxamide]	1.3
Cn1c(C(=O)NC2(C)CCS(=O)(=O)CC2)nc2ccc(Oc3ncc(F)cc3OCC(F)(F)F)nc21 [Example 29, 5-((5-Fluoro-3-(2,2,2-trifluoroethoxy)pyridin-2-yl)oxy)-3-methyl-N-(4-methyl-1,1-dioxidotetrahydro-2H-thiopyran-4-yl)-3H-imidazo[4,5-b]pyridine-2-carboxamide]	12
Cn1c(C(=O)NC2(C)CCS(=O)(=O)CC2)nc2ccc(Oc3ncc(Cl)cc3OCC(F)(F)F)c(F)c21 [Example 21, 6-((5-Chloro-3-(2,2,2-trifluoroethoxy)pyridin-2-yl)oxy)-7-fluoro-1-methyl-N-(4-methyl-1,1-dioxidotetrahydro-2H-thiopyran-4-yl)-1H-benzo[d]imidazole-2-carboxamide]	2.3

Other lines, results leading:

IC50 [nM]	SMILES
2.3	Cn1c(C(=O)NC2(C)CCS(=O)(=O)CC2)nc2ccc(OCc3ncc(Cl)cc3OCC(F)F)nc21 [Example 58, 5-((5-Chloro-3-(2,2-difluoroethoxy)pyridin-2-yl)methoxy)-3-methyl-N-(4-methyl-1,1-dioxidotetrahydro-2H-thiopyran-4-yl)-3H-imidazo[4,5-b]pyridine-2-carboxamide]
2.7	Cn1c(C(=O)NC2(C)CCS(=O)(=O)CC2)nc2c(F)cc(Oc3ncc(Cl)cc3OCC(F)F)cc21 [Example 27, 6-((5-chloro-3-(2,2-difluoroethoxy)pyridin-2-yl)oxy)-4-fluoro-1-methyl-N-(4-methyl-1,1-dioxidotetrahydro-2H-thiopyran-4-yl)-1H-benzo[d]imidazole-2-carboxamide]
7.8	Cc1c(Oc2ncc(Cl)cc2OCC(F)F)cnc2nc(C(=O)NC3(C)CCS(=O)(=O)CC3)n(C)c12 [Example 84, 6-[[5-Chloro-3-(2,2-difluoroethoxy)-2-pyridyl]oxy]-1,7-dimethyl-N-(4-methyl-1,1-dioxo-thian-4-yl)imidazo[4,5-b]pyridine-2-carboxamide]
2.5	CC1(NC(=O)c2nc3cnc(Oc4ncc(Cl)cc4OCC(F)F)cc3s2)CCS(=O)(=O)CC1 [Example 97, 6-[[5-chloro-3-(2,2-difluoroethoxy)-2-pyridyl]oxy]-N-(4-methyl-1,1-dioxo-thian-4-yl)thiazolo[4,5-c]pyridine-2-carboxamide]
15	CC1(NC(=O)c2nc3ccc(Oc4ncc(Cl)cc4OCC(F)F)nc3[nH]2)CCS(=O)(=O)CC1 [Example 50, 5-((5-chloro-3-(2,2-difluoroethoxy)pyridin-2-yl)oxy)-N-(4-methyl-1,1-dioxidotetrahydro-2H-thiopyran-4-yl)-3H-imidazo[4,5-b]pyridine-2-carboxamide]
86	Cn1c(C(=O)NC2(C)CCS(=O)(=O)CC2)nc2cc(Cl)c(Oc3ncc(Cl)cc3OCC(F)F)nc21 [Example 44, 6-chloro-5-((5-chloro-3-(2,2-difluoroethoxy)pyridin-2-yl)oxy)-3-methyl-N-(4-methyl-1,1-dioxidotetrahydro-2H-thiopyran-4-yl)-3H-imidazo[4,5-b]pyridine-2-carboxamide]
1.3	Cn1c(C(=O)NC2(C)CCS(=O)(=O)CC2)nc2ccc(Oc3ncc(Cl)cc3OCC(F)F)nc21 [Example 28, 5-((5-Chloro-3-(2,2-difluoroethoxy)pyridin-2-yl)oxy)-3-methyl-N-(4-methyl-1,1-dioxidotetrahydro-2H-thiopyran-4-yl)-3H-imidazo[4,5-b]pyridine-2-carboxamide]
2.2	Cc1cc2nc(C(=O)NC3(C)CCS(=O)(=O)CC3)n(C)c2nc1Oc1ncc(Cl)cc1OCC(F)F [Example 45, 5-((5-chloro-3-(2,2-difluoroethoxy)pyridin-2-yl)oxy)-3,6-dimethyl-N-(4-methyl-1,1-dioxidotetrahydro-2H-thiopyran-4-yl)-3H-imidazo[4,5-b]pyridine-2-carboxamide]

same assay, conditions: read-out: Human DGAT2 IC50; hDGAT2 membrane prep from Sf-9 cells; 13C18-triolein product by LC/MS/MS

SMILES	IC50 [nM]
O=C(N[C@H]1CCOC1)c1nc2ccc(Oc3ncc(Cl)cc3OCC(F)(F)F)cc2o1 [Example 5, 6-[[5-chloro-3-(2,2,2-trifluoroethoxy)-2-pyridyl]oxy]-N-[(3S)-tetrahydrofuran-3-yl]-1,3-benzoxazole-2-carboxamide]	1810
Cn1c(C(=O)NC2(C)CCS(=O)(=O)CC2)nc2ccc(OCc3ncc(F)cc3OCC(F)(F)F)nc21 [Example 59, 5-[[5-Fluoro-3-(2,2,2-trifluoroethoxy)-2-pyridyl]methoxy]-3-methyl-N-(4-methyl-1,1-dioxo-thian-4-yl)imidazo[4,5-b]pyridine-2-carboxamide]	2.8
Cn1c(C(=O)NC2(C)CCS(=O)(=O)CC2)nc2ccc(Oc3ncccc3OCC(F)(F)F)nc21 [Example 34, 3-methyl-N-(4-methyl-1,1-dioxidotetrahydro-2H-thiopyran-4-yl)-5-((3-(2,2,2-trifluoroethoxy)pyridin-2-yl)oxy)-3H-imidazo[4,5-b]pyridine-2-carboxamide]	> 109
Cn1c(C(=O)NC2(C)CCS(=O)(=O)CC2)nc2cnc(Oc3ncc(F)cc3OCC(F)(F)F)c(F)c21 [Example 77, 7-fluoro-6-[[5-fluoro-3-(2,2,2-trifluoroethoxy)-2-pyridyl]oxy]-1-methyl-N-(4-methyl-1,1-dioxo-thian-4-yl)imidazo[4,5-c]pyridine-2-carboxamide]	48
Cn1c(C(=O)NC2(C)CCS(=O)(=O)CC2)nc2cnc(Oc3ncc(Cl)cc3OCC(C)(F)F)cc21 [Example 67, 6-[[5-chloro-3-(2,2-difluoropropoxy)-2-pyridyl]oxy]-1-methyl-N-(4-methyl-1,1-dioxo-thian-4-yl)imidazo[4,5-c]pyridine-2-carboxamide]	24
Cn1c(C(=O)N[C@H]2CCCC(F)(F)[C@@H]2O)nc2cnc(Oc3ncc(Cl)cc3OCC(F)F)cc21 [Example 75, 6-[[5-chloro-3-(2,2-difluoroethoxy)-2-pyridyl]oxy]-N-[(1S,2R)-3,3-difluoro-2-hydroxy-cyclohexyl]-1-methyl-imidazo[4,5-c]pyridine-2-carboxamide]	10
CC1(NC(=O)c2nc3ccc(Oc4ncccc4OCC(F)(F)F)cc3o2)CCS(=O)(=O)CC1 [Example 2, N-(4-methyl-1,1-dioxo-thian-4-yl)-6-[[3-(2,2,2-trifluoroethoxy)-2-pyridyl]oxy]-1,3-benzoxazole-2-carboxamide]	47
CC1(NC(=O)c2nc3ccc(Oc4ncc(Cl)cc4OCC(F)F)nc3n2CC2(F)COC2)CCS(=O)(=O)CC1 [Example 57, 5-((5-chloro-3-(2,2-difluoroethoxy)pyridin-2-yl)oxy)-3-((3-fluorooxetan-3-yl)methyl)-N-(4-methyl-1,1-dioxidotetrahydro-2H-thiopyran-4-yl)-3H-imidazo[4,5-b]pyridine-2-carboxamide]	183
CC1(NC(=O)c2nc3ccc(Oc4ncc(Cl)cc4OCC(F)(F)F)cc3o2)CC(F)(F)C1 [Example 4]	236
Cn1c(C(=O)NC2(C)CS(=O)(=O)C2)nc2ccc(Oc3ncccc3OCC(F)(F)F)nc21 [Example 35, 3-methyl-N-(3-methyl-1,1-dioxidothietan-3-yl)-5-((3-(2,2,2-trifluoroethoxy)pyridin-2-yl)oxy)-3H-imidazo[4,5-b]pyridine-2-carboxamide]	> 9990
CC1(NC(=O)c2nc3ccc(Oc4ncc(Cl)cc4OCC(F)(F)F)cc3o2)CCC(F)(F)CC1 [Example 9, 6-[[5-chloro-3-(2,2,2-trifluoroethoxy)-2-pyridyl]oxy]-N-(4,4-difluoro-1-methyl-cyclohexyl)-1,3-benzoxazole-2-carboxamide]	29
CC1(NC(=O)c2nc3nc(Oc4ncc(Cl)cc4OCC(F)F)ccc3n2CC(F)F)CCS(=O)(=O)CC1 [Example 53, 5-((5-chloro-3-(2,2-difluoroethoxy)pyridin-2-yl)oxy)-1-(2,2-difluoroethyl)-N-(4-methyl-1,1-dioxidotetrahydro-2H-thiopyran-4-yl)-1H-imidazo[4,5-b]pyridine-2-carboxamide]	134

The remaining lines, values ahead:

IC50 [nM]	SMILES
14	Cc1nc(Oc2ncc(Cl)cc2OCC(F)F)cc2c1nc(C(=O)NC1(C)CCS(=O)(=O)CC1)n2C [Example 74, 6-[5-chloro-3-(2,2-difluoroethoxy)pyridin-1-ium-2-yl]oxy-1,4-dimethyl-N-(4-methyl-1,1-dioxo-thian-4-yl)imidazo[4,5-c]pyridine-2-carboxamide]
2.2	Cn1c(C(=O)NC2(C)CCS(=O)(=O)CC2)nc2cc(F)c(Oc3ncc(F)cc3OCC(F)(F)F)nc21 [Example 42, 6-fluoro-5-((5-fluoro-3-(2,2,2-trifluoroethoxy)pyridin-2-yl)oxy)-3-methyl-N-(4-methyl-1,1-dioxidotetrahydro-2H-thiopyran-4-yl)-3H-imidazo[4,5-b]pyridine-2-carboxamide]
29	Cc1cnc(Oc2ccc3nc(C(=O)NC4(C)CCS(=O)(=O)CC4)n(C)c3n2)c(OCC(F)F)c1 [Example 37, 5-[[3-(2,2-difluoroethoxy)-5-methyl-2-pyridyl]oxy]-3-methyl-N-(4-methyl-1,1-dioxo-thian-4-yl)imidazo[4,5-b]pyridine-2-carboxamide]

Source: patent publication US20240254114A1, “PREPARATION OF FUSED AZOLE DERIVATIVES AS NOVEL DIACYLGLYCERIDE 0-ACYLTRANSFERASE 2 INHIBITORS” (Merck Sharp & Dohme LLC, priority 2022, published 2024)
